Experimental data: patent EP0056114A1, “Pyridylamino benzoic acids, their preparation and use” (C.H. BOEHRINGER SOHN, priority 1981, dated 1982)

Test system: Ratte
Test: PCA test in the rat, oral administration
Format: in vivo
Conditions: factor by which the ED50 is lower than that of Verbindung A (no absolute ED50 printed)

CC(C)c1ccc(Nc2ccc(C(=O)O)cc2C(=O)O)nc1
Fold lower ED50 than compound A (rat PCA test, oral): ca. 100 mal
